Measured values from US20260042764A1, “COMPOSITIONS AND METHODS FOR INHIBITION OF KRAS” (TheRas, Inc., priority 2022, published 2026).
pIC50: −log10 of the molar value.

target: T1, Avi-KRAS WT (1-169) GppNHp/RAF1 RBD-3xFLAG (52-151) (Homo sapiens, UniProt P01116); assay: Raf1-KRAS WT-GppNHP disruption HTRF assay (Biological Example 1); format: binding; settings: KRAS WT, GppNHp-loaded; class symbols
T1 construct: Avi-KRAS WT (1-169)
Method in brief: (§1)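 Compound disruption of KRAS-GppNHp/RAF1 RBD binding read by HTRF after two sequential 1 h room-temperature incubations (protein mix, then detection reagents), shaken at 700 rpm. Buffer Tris pH 7.5 with MgCl2, BSA, Tween and 10% DMSO; results given as percent activity relative to DMSO (100%).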

T1 sequence (P01116 1-169 isoform P01116-2): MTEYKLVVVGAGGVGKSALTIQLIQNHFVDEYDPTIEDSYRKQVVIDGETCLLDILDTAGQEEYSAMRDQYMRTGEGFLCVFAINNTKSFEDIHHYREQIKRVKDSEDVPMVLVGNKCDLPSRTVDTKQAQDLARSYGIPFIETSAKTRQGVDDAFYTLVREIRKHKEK

Row | SMILES | pIC50
1 | CCN(c1nc(OCC23CCCN2CC(F)C3)nc2c(F)c(-c3ccc(F)c4sc(N)c(C#N)c34)c(C(F)(F)F)cc12)C1CCN(C(=O)c2ncon2)C1 (stereo not drawn) [Compound 754] | 6.00 to 7.00
2 | CCc1c(C(=O)N(C)C)nn2c1CN(c1nc(OCC34CCCN3CC(F)C4)nc3c(F)c(-c4ccc(F)c5sc(N)c(C#N)c45)c(C(F)(F)F)cc13)CC2 (stereo not drawn) [Compound 773] | 6.00 to 7.00
3 | CCN(c1nc(OC[C@@]23CCCN2C[C@H](F)C3)nc2c(F)c(-c3ccc(F)c4sc(N)c(C#N)c34)c(C(F)(F)F)cc12)[C@H]1CCN(C(=O)OC2CC(F)C2)C1 (stereo partly drawn) [Compound 776] | 6.00 to 7.00
4 | CCN(c1nc(OC[C@@]23CCCN2C[C@H](F)C3)nc2c(F)c(-c3ccc(F)c4sc(N)c(C#N)c34)c(C(F)(F)F)cc12)[C@H]1CCN(C(=O)C2CC(OC)C2)C1 (stereo partly drawn) [Compound 777] | 6.00 to 7.00
5 | CCN(c1nc(OC[C@@]23CCCN2C[C@H](F)C3)nc2c(F)c(-c3ccc(F)c4sc(N)c(C#N)c34)c(C(F)(F)F)cc12)[C@H]1CCN(C(=O)OC2CC(F)C2)C1 (stereo partly drawn) [Compound 787] | > 7.00
6 | CCN(c1nc(OC[C@@]23CCCN2C[C@H](F)C3)nc2c(F)c(-c3ccc(F)c4sc(N)c(C#N)c34)c(C(F)(F)F)cc12)[C@H]1CCN(C(=O)OC2CC(OC)C2)C1 (stereo partly drawn) [Compound 791] | > 7.00

target: T2, Avi-KRAS G12D (1-169) GppNHp/RAF1 RBD-3xFLAG (52-151) (Homo sapiens, UniProt P01116, G12D); assay: Raf1-KRAS G12D-GppNHP disruption HTRF assay (Biological Example 1); format: binding; settings: KRAS G12D, GppNHp-loaded; class symbols
T2 construct: Avi-KRAS G12D (1-169)
T2 sequence (P01116 1-169 isoform P01116-2 G12D): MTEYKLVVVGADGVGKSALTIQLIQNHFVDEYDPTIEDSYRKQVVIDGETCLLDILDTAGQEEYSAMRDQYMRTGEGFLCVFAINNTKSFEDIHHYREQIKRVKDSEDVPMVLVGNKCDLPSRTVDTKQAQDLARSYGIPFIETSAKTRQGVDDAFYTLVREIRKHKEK
Method in brief: as §1

Row | SMILES | pIC50
7 | CCN(c1nc(OCC23CCCN2CC(F)C3)nc2c(F)c(-c3ccc(F)c4sc(N)c(C#N)c34)c(C(F)(F)F)cc12)C1CCN(C(=O)c2ncon2)C1 (stereo not drawn) [Compound 754] | > 7.00
8 | CCc1c(C(=O)N(C)C)nn2c1CN(c1nc(OCC34CCCN3CC(F)C4)nc3c(F)c(-c4ccc(F)c5sc(N)c(C#N)c45)c(C(F)(F)F)cc13)CC2 (stereo not drawn) [Compound 773] | 6.00 to 7.00
9 | CCN(c1nc(OC[C@@]23CCCN2C[C@H](F)C3)nc2c(F)c(-c3ccc(F)c4sc(N)c(C#N)c34)c(C(F)(F)F)cc12)[C@H]1CCN(C(=O)OC2CC(F)C2)C1 (stereo partly drawn) [Compound 776] | > 7.00
10 | CCN(c1nc(OC[C@@]23CCCN2C[C@H](F)C3)nc2c(F)c(-c3ccc(F)c4sc(N)c(C#N)c34)c(C(F)(F)F)cc12)[C@H]1CCN(C(=O)C2CC(OC)C2)C1 (stereo partly drawn) [Compound 777] | > 7.00
11 | CCN(c1nc(OC[C@@]23CCCN2C[C@H](F)C3)nc2c(F)c(-c3ccc(F)c4sc(N)c(C#N)c34)c(C(F)(F)F)cc12)[C@H]1CCN(C(=O)OC2CC(F)C2)C1 (stereo partly drawn) [Compound 787] | > 7.00
12 | CCN(c1nc(OC[C@@]23CCCN2C[C@H](F)C3)nc2c(F)c(-c3ccc(F)c4sc(N)c(C#N)c34)c(C(F)(F)F)cc12)[C@H]1CCN(C(=O)OC2CC(OC)C2)C1 (stereo partly drawn) [Compound 791] | > 7.00

test system: SW620 cells (KRAS G12V); assay: Cell-based pERK HTRF assay in SW620 cell (Biological Example 4); settings: Homo sapiens, SW-620, SW620 (KRAS G12V) cells, pERK HTRF; class symbols
Method in brief: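 SW620 seeded in RPMI/10% FBS, next day dosed 4 h (top 1 μM, half-log, 9 pts, 0.25% DMSO). Lysed, pERK by d2/Eu cryptate HTRF, 4–24 h RT, 615 nm read.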

Row | SMILES | pIC50
13 | CCN(c1nc(OCC23CCCN2CC(F)C3)nc2c(F)c(-c3ccc(F)c4sc(N)c(C#N)c34)c(C(F)(F)F)cc12)C1CCN(C(=O)c2ncon2)C1 (stereo not drawn) [Compound 754] | > 7.00
14 | CCc1c(C(=O)N(C)C)nn2c1CN(c1nc(OCC34CCCN3CC(F)C4)nc3c(F)c(-c4ccc(F)c5sc(N)c(C#N)c45)c(C(F)(F)F)cc13)CC2 (stereo not drawn) [Compound 773] | > 7.00
15 | CCN(c1nc(OC[C@@]23CCCN2C[C@H](F)C3)nc2c(F)c(-c3ccc(F)c4sc(N)c(C#N)c34)c(C(F)(F)F)cc12)[C@H]1CCN(C(=O)OC2CC(F)C2)C1 (stereo partly drawn) [Compound 776] | > 7.00
16 | CCN(c1nc(OC[C@@]23CCCN2C[C@H](F)C3)nc2c(F)c(-c3ccc(F)c4sc(N)c(C#N)c34)c(C(F)(F)F)cc12)[C@H]1CCN(C(=O)C2CC(OC)C2)C1 (stereo partly drawn) [Compound 777] | > 7.00
17 | CCN(c1nc(OC[C@@]23CCCN2C[C@H](F)C3)nc2c(F)c(-c3ccc(F)c4sc(N)c(C#N)c34)c(C(F)(F)F)cc12)[C@H]1CCN(C(=O)OC2CC(OC)C2)C1 (stereo partly drawn) [Compound 791] | > 7.00

same assay, conditions: SW620 (KRAS G12V) cells, pERK HTRF; class symbols

Row | SMILES | pIC50
18 | CCN(c1nc(OC[C@@]23CCCN2C[C@H](F)C3)nc2c(F)c(-c3ccc(F)c4sc(N)c(C#N)c34)c(C(F)(F)F)cc12)[C@H]1CCN(C(=O)OC2CC(F)C2)C1 (stereo partly drawn) [Compound 787] | > 7.00

target: T3, Avi-KRAS G12V (1-169) GppNHp/RAF1 RBD-3xFLAG (52-151) (Homo sapiens, UniProt P01116, G12V); assay: Raf1-KRAS G12V-GppNHP disruption HTRF assay (Biological Example 1); format: binding; settings: KRAS G12V, GppNHp-loaded; class symbols
T3 construct: Avi-KRAS G12V (1-169)
T3 sequence (P01116 1-169 isoform P01116-2 G12V): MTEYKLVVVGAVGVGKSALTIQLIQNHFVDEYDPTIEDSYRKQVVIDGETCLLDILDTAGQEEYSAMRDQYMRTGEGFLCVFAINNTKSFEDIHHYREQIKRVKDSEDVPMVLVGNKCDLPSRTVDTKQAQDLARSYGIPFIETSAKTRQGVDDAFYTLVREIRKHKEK
Method in brief: as §1

Row | SMILES | pIC50
19 | CCN(c1nc(OCC23CCCN2CC(F)C3)nc2c(F)c(-c3ccc(F)c4sc(N)c(C#N)c34)c(C(F)(F)F)cc12)C1CCN(C(=O)c2ncon2)C1 (stereo not drawn) [Compound 754] | 6.00 to 7.00
20 | CCc1c(C(=O)N(C)C)nn2c1CN(c1nc(OCC34CCCN3CC(F)C4)nc3c(F)c(-c4ccc(F)c5sc(N)c(C#N)c45)c(C(F)(F)F)cc13)CC2 (stereo not drawn) [Compound 773] | 6.00 to 7.00
21 | CCN(c1nc(OC[C@@]23CCCN2C[C@H](F)C3)nc2c(F)c(-c3ccc(F)c4sc(N)c(C#N)c34)c(C(F)(F)F)cc12)[C@H]1CCN(C(=O)OC2CC(F)C2)C1 (stereo partly drawn) [Compound 776] | 6.00 to 7.00
22 | CCN(c1nc(OC[C@@]23CCCN2C[C@H](F)C3)nc2c(F)c(-c3ccc(F)c4sc(N)c(C#N)c34)c(C(F)(F)F)cc12)[C@H]1CCN(C(=O)C2CC(OC)C2)C1 (stereo partly drawn) [Compound 777] | 6.00 to 7.00
23 | CCN(c1nc(OC[C@@]23CCCN2C[C@H](F)C3)nc2c(F)c(-c3ccc(F)c4sc(N)c(C#N)c34)c(C(F)(F)F)cc12)[C@H]1CCN(C(=O)OC2CC(F)C2)C1 (stereo partly drawn) [Compound 787] | > 7.00
24 | CCN(c1nc(OC[C@@]23CCCN2C[C@H](F)C3)nc2c(F)c(-c3ccc(F)c4sc(N)c(C#N)c34)c(C(F)(F)F)cc12)[C@H]1CCN(C(=O)OC2CC(OC)C2)C1 (stereo partly drawn) [Compound 791] | > 7.00

test system: GP2d cells (KRAS G12D); assay: Cell-based pERK HTRF assay in GP2d cell (Biological Example 2); settings: GP2d (KRAS G12D) cells, pERK HTRF; class symbols
Method in brief: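 60 min compound, 0.25% DMSO, 9-pt half-log curve from 1 μM or 100 nM; DMEM/10% FBS.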

Row | SMILES | pIC50
25 | CCN(c1nc(OC[C@@]23CCCN2C[C@H](F)C3)nc2c(F)c(-c3ccc(F)c4sc(N)c(C#N)c34)c(C(F)(F)F)cc12)[C@H]1CCN(C(=O)OC2CC(F)C2)C1 (stereo partly drawn) [Compound 787] | > 7.00

same assay, conditions: GP2d, GP2d (KRAS G12D) cells, pERK HTRF; class symbols

Row | SMILES | pIC50
26 | CCN(c1nc(OCC23CCCN2CC(F)C3)nc2c(F)c(-c3ccc(F)c4sc(N)c(C#N)c34)c(C(F)(F)F)cc12)C1CCN(C(=O)c2ncon2)C1 (stereo not drawn) [Compound 754] | > 7.00
27 | CCc1c(C(=O)N(C)C)nn2c1CN(c1nc(OCC34CCCN3CC(F)C4)nc3c(F)c(-c4ccc(F)c5sc(N)c(C#N)c45)c(C(F)(F)F)cc13)CC2 (stereo not drawn) [Compound 773] | > 7.00
28 | CCN(c1nc(OC[C@@]23CCCN2C[C@H](F)C3)nc2c(F)c(-c3ccc(F)c4sc(N)c(C#N)c34)c(C(F)(F)F)cc12)[C@H]1CCN(C(=O)OC2CC(F)C2)C1 (stereo partly drawn) [Compound 776] | > 7.00
29 | CCN(c1nc(OC[C@@]23CCCN2C[C@H](F)C3)nc2c(F)c(-c3ccc(F)c4sc(N)c(C#N)c34)c(C(F)(F)F)cc12)[C@H]1CCN(C(=O)C2CC(OC)C2)C1 (stereo partly drawn) [Compound 777] | > 7.00
30 | CCN(c1nc(OC[C@@]23CCCN2C[C@H](F)C3)nc2c(F)c(-c3ccc(F)c4sc(N)c(C#N)c34)c(C(F)(F)F)cc12)[C@H]1CCN(C(=O)OC2CC(OC)C2)C1 (stereo partly drawn) [Compound 791] | > 7.00

target: T4, Avi-KRAS G12R (1-169) GppNHp/RAF1 RBD-3xFLAG (52-151) (Homo sapiens, UniProt P01116, G12R); assay: Raf1-KRAS G12R-GppNHP disruption HTRF assay (Biological Example 1); format: binding; settings: KRAS G12R, GppNHp-loaded; class symbols
T4 construct: Avi-KRAS G12R (1-169)
T4 sequence (P01116 1-169 isoform P01116-2 G12R): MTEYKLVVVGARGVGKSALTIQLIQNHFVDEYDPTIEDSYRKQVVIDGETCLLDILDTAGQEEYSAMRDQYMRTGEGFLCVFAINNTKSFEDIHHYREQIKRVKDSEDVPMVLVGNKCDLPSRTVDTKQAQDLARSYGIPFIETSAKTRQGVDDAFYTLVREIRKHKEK
Method in brief: as §1

Row | SMILES | pIC50
31 | CCN(c1nc(OCC23CCCN2CC(F)C3)nc2c(F)c(-c3ccc(F)c4sc(N)c(C#N)c34)c(C(F)(F)F)cc12)C1CCN(C(=O)c2ncon2)C1 (stereo not drawn) [Compound 754] | > 7.00
32 | CCc1c(C(=O)N(C)C)nn2c1CN(c1nc(OCC34CCCN3CC(F)C4)nc3c(F)c(-c4ccc(F)c5sc(N)c(C#N)c45)c(C(F)(F)F)cc13)CC2 (stereo not drawn) [Compound 773] | 6.00 to 7.00
33 | CCN(c1nc(OC[C@@]23CCCN2C[C@H](F)C3)nc2c(F)c(-c3ccc(F)c4sc(N)c(C#N)c34)c(C(F)(F)F)cc12)[C@H]1CCN(C(=O)OC2CC(F)C2)C1 (stereo partly drawn) [Compound 776] | > 7.00
34 | CCN(c1nc(OC[C@@]23CCCN2C[C@H](F)C3)nc2c(F)c(-c3ccc(F)c4sc(N)c(C#N)c34)c(C(F)(F)F)cc12)[C@H]1CCN(C(=O)C2CC(OC)C2)C1 (stereo partly drawn) [Compound 777] | > 7.00
35 | CCN(c1nc(OC[C@@]23CCCN2C[C@H](F)C3)nc2c(F)c(-c3ccc(F)c4sc(N)c(C#N)c34)c(C(F)(F)F)cc12)[C@H]1CCN(C(=O)OC2CC(F)C2)C1 (stereo partly drawn) [Compound 787] | > 7.00
36 | CCN(c1nc(OC[C@@]23CCCN2C[C@H](F)C3)nc2c(F)c(-c3ccc(F)c4sc(N)c(C#N)c34)c(C(F)(F)F)cc12)[C@H]1CCN(C(=O)OC2CC(OC)C2)C1 (stereo partly drawn) [Compound 791] | > 7.00
